PubChem BioAssay (NCI)
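Protocol summary: plate cells (96-well), add compound at 5 concentrations, incubate 48 h, interpolate endpoints linearly. GI50 = concentration required for 50% inhibition of growth. TGI: concentration producing complete growth inhibition.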

How the values were obtained:
Experiment in all cases: inhibition of tumour cell growth, NCI panel, 48 h
[1] = tested on: COLO 205 colon
[2] = tested on: HCT-15 colon
[3] = tested on: HL-60(TB) leukemia
[4] = tested on: MDA-MB-435
[5] = tested on: SF-268 CNS
[6] = tested on: SF-539 CNS
[7] = tested on: SK-MEL-28 melanoma
[8] = tested on: SK-MEL-5 melanoma
[9] = tested on: SN12C renal
[10] = tested on: EKVX NSCLC

| SMILES | GI50 [1] [µM] | TGI [1] [µM] | GI50 [2] [µM] | TGI [2] [µM] | GI50 [3] [µM] | TGI [3] [µM] | GI50 [4] [µM] | TGI [4] [µM] | GI50 [5] [µM] | TGI [5] [µM] | GI50 [6] [µM] | TGI [6] [µM] | GI50 [7] [µM] | TGI [7] [µM] | GI50 [8] [µM] | TGI [8] [µM] | GI50 [9] [µM] | TGI [9] [µM] | GI50 [10] [µM] | TGI [10] [µM] |
| --- | --- | --- | --- | --- | --- | --- | --- | --- | --- | --- | --- | --- | --- | --- | --- | --- | --- | --- | --- | --- |
| O=C(Nc1cccc2[nH]c(C(F)(F)F)nc12)c1cc(Cl)ccc1Cl | 1.84 | 3.62 | 3.38 | 19.4 | 2.87 | 7.53 | 2.96 | 12.4 | 4.69 | > 100 | 3.07 | 15.3 | 4.95 | 35.4 | 1.77 | 3.45 | 2.78 | 9.59 |  |  |
| COc1cc(OC)c2sc(-c3ccc(-n4cncc4-c4ccc(OC)c(OC)c4)cc3)nc2c1 |  |  | > 100 | > 100 | 3.09 | > 100 |  |  | 9.96 | > 100 | > 100 | > 100 | > 100 | > 100 | 3.61 | > 100 | > 100 | > 100 |  |  |
| O=C(NN1C(=O)CSC1c1cccc(Cl)c1)C(O)c1ccccc1 (centres undefined) | > 100 | > 100 | 68.6 | > 100 |  |  | > 100 | > 100 | > 100 | > 100 | > 100 | > 100 | > 100 | > 100 | > 100 | > 100 | > 100 | > 100 | 64.5 | > 100 |
| CCOC(=O)C1Cc2ccc3c4c(ccc(c24)C1)CC(C(=O)OCC)C3 |  | > 100 |  | > 100 |  | > 100 |  |  |  | > 100 |  | > 100 |  | > 100 |  | > 100 |  | > 100 |  | > 100 |
| CC1(C)COC2C(N(Cc3ccccc3)Cc3ccccc3)C(=O)N21 (centres undefined) |  | 61.8 |  | > 100 |  | 62.9 |  |  |  | 82.1 |  | 69.8 |  | > 100 |  | > 100 |  | > 100 |  | > 100 |
| C[N+](C)(C)CC1CCCCC1=O (centres undefined) |  | 49.3 |  | 29 |  | 34.7 |  |  |  |  |  | > 100 |  | 31.6 |  | 80.3 |  | > 100 |  | 57.5 |
| CC(=O)c1cccc(NC(=O)C(=O)c2c(O)c3ccccc3oc2=O)c1 |  |  |  | > 100 |  |  |  | > 100 |  | > 100 |  | > 100 |  | > 100 |  | > 100 |  | > 100 |  | > 100 |
| COc1ccc(-c2cnnn2-c2nonc2-n2cccc2)cc1OC | 3.64 | 14.8 | 2.38 | > 100 | 3.09 | 15.4 | 0.716 | 3.01 | 8.06 | > 100 | 3.44 | 22.2 | 7.74 | > 100 | 4.6 | 21.1 | 5.71 | > 100 |  |  |
| Cc1cc(NCc2cc(Nc3ccnc4cc(Cl)ccc34)ccc2F)nc(N2CCOCC2)n1 |  |  |  |  | 1.77 | 3.82 |  |  | 3.08 | 18 |  |  |  |  |  |  | 1.84 | 4.3 | 3.18 | 23.9 |
| CCOC(=O)c1ccc(NC(=O)NC2=NCCS2)cc1 | 40.8 | > 100 | 8.54 | > 100 | 0.503 | > 100 | 3.42 | 19.4 | 3.5 | > 100 | 0.381 | 2.27 | 64.9 | > 100 | 2.7 | > 100 | 0.954 | > 100 |  |  |
| COC(=O)C(=O)C(CC(=O)Nc1ccc(C)cc1)C(=O)OC (centres undefined) |  |  |  | > 100 |  | > 100 |  |  |  | > 100 |  | > 100 |  | > 100 |  | > 100 |  | > 100 |  | > 100 |
| COc1ccc(O)c(C(=O)CCC(=O)O)c1 |  | > 100 |  | > 100 |  | > 100 |  |  |  | > 100 |  | > 100 |  | > 100 |  | > 100 |  | > 100 |  | > 100 |
| CC1=Nc2ccccc2SC(c2c(Cl)cccc2Cl)C1 (centres undefined) |  | 3.12 |  | 2.57 |  | 1.12 |  |  |  | 2.73 |  | 2.72 |  | 2.69 |  | 3.06 |  | 2.7 |  | 3.82 |
| COc1ccc(Nc2nc(Nc3cc(C)[nH]n3)c3cc(OC)c(OC)cc3n2)cc1 |  |  | 0.685 | 2.45 |  |  | 1.23 | 2.58 | 1.35 | 2.92 | 1.1 | 2.39 | 1.7 | 3.26 | 1.37 | 3.05 |  |  | 1.48 | 2.94 |
| Clc1ccccc1CN1COc2c(ccc3cccnc23)C1 |  | 24.8 |  | 14.8 |  | 4.33 |  |  |  | 13.5 |  | 11.7 |  | 14.9 |  | 8.93 |  | 23.2 |  | 15.9 |
| COC(=O)C(C(=O)C(=O)Nc1ccc(C)cc1C)c1csc(-n2nc(-c3ccccc3)cc2-c2ccccc2)n1 (centres undefined) |  | > 100 |  | > 100 |  | > 100 |  |  |  | > 100 |  |  |  |  |  |  |  | > 100 |  | > 100 |
| CN(C)CCCOc1cccc(NC2=C(Cl)C(=O)C(Nc3cccc(OCCCN(C)C)c3)=C(Cl)C2=O)c1 | 1.56 | 3.34 | 0.911 | 2.45 |  |  | 1.04 | 2.44 | 1.7 | 3.47 | 1.8 | 3.22 | 1.71 | 3.16 | 1 | 2.37 | 0.345 | 0.865 | 1.19 | 2.54 |
| CC1CC2(S(=O)(=O)c3ccccc3)ON1CC2S(=O)(=O)c1ccccc1 (centres undefined) |  | > 100 |  | > 100 |  | > 100 |  |  |  | > 100 |  | > 100 |  | > 100 |  |  |  | > 100 |  | > 100 |
